Laboratory results reported in ChEMBL document CHEMBL5528001, “Synthetic product-based approach toward potential antileishmanial drug development” (Eur J Med Chem, 2024).
In brackets after ≈: the same amount, converted by molar mass.

Legend:
[1] = tested on: Leishmania major; assay: Antileishmanial activity against Leishmania major amastigotes assessed as reduction in parasite viability measured for 72 hrs by Giemsa-staining based microscopic analysis; assay type: functional, organism-based
[2] = tested on: Leishmania major; assay: Antileishmanial activity against Leishmania major promastigotes assessed as reduction in parasite viability measured after 72 hrs by Giemsa-staining based microscopic analysis; assay type: functional, organism-based
[3] = tested on: Leishmania aethiopica; assay: Antileishmanial activity against Leishmania aethiopica amastigotes assessed as inhibition of parasite growth measured after 24 hrs by Alamar blue based analysis; assay type: functional, organism-based
[4] = tested on: Leishmania amazonensis; assay: Antileishmanial activity against Leishmania amazonensis IFLA/BR/1967/PH8 amastigotes infected in murine peritoneal macrophages incubated for 24 hrs by Giemsa staining based analysis; assay type: functional, organism-based; conditions: IFLA/BR/1967/PH8, 24 h
[5] = tested on: Leishmania infantum; assay: Antileishmanial activity against Leishmania infantum MHOM/BR/1972/BH46 amastigotes assessed as reduction in cell viability measured for 48 hrs by PI staining based flow cytometry analysis; assay type: functional, organism-based; conditions: MHOM/BR/1972/BH46, 48 h
[6] = tested on: Leishmania infantum; assay: Antileishmanial activity against Leishmania infantum MHOM/BR/1972/BH46 promastigotes assessed as reduction in parasite viability measured for 48 hrs by PI staining based flow cytometry analysis; assay type: functional, organism-based; conditions: MHOM/BR/1972/BH46, 48 h
[7] = tested on: Leishmania donovani; assay: Antileishmanial activity against Leishmania donovani amastigotes assessed as parasite growth inhibition incubated for 72 hrs by MTS assay; assay type: functional, organism-based
[8] = Cytotoxicity against HEK293 cells assessed as reduction in cell viability incubated for 6 days by CellTiter-Glo luminescent cell viability assay; assay type: toxicity, cell-based; conditions: human
[9] = tested on: Leishmania donovani; assay: Antileishmanial activity against Leishmania donovani amastigotes; assay type: functional, organism-based
[10] = tested on: HepG2; assay: Antiproliferative activity against human HepG2 cells assessed as reduction in cell viability incubated for 72 hrs by MTT assay; assay type: functional, cell-based; conditions: HepG2, 72 h
[11] = tested on: Leishmania major; assay: Antileishmanial activity against Leishmania major amastigotes assessed as reduction in parasite growth incubated for 48 hrs by resazurin dye based analysis; assay type: functional, organism-based
[12] = tested on: Leishmania major; assay: Antileishmanial activity against Leishmania major assessed as reduction in parasite growth; assay type: functional, organism-based
[13] = tested on: J774.A1; assay: Cytotoxicity against mouse J774.A1 cells assessed as reduction in cell viability incubated for 72 hrs by MTT assay; assay type: functional
[14] = tested on: Leishmania infantum; assay: Antileishmanial activity against Leishmania infantum promastigote assessed as reduction in parasite growth after 72 hrs by MTT assay; assay type: functional, organism-based
[15] = tested on: Leishmania donovani; assay: Antileishmanial activity against Leishmania donovani amastigotes infected in J774.A1 macrophage assessed as inhibition of parasite growth by luciferase assay; assay type: functional, organism-based
[16] = tested on: Leishmania donovani; assay: Antileishmanial activity against Leishmania donovani amastigotes infected in human THP-1 cells assessed as inhibition of parasite infection incubated for 72 hrs by DAPI staining based assay; assay type: functional, organism-based; conditions: THP-1, 72 h
[17] = tested on: Leishmania braziliensis; assay: Antileishmanial activity against Leishmania braziliensis MHOM/BR/75/M2903 strain promastigotes assessed as reduction in cell viability incubated for 48 hrs by MTT assay; assay type: functional, organism-based; conditions: MHOM/BR/75/M2903, 48 h
[18] = tested on: Leishmania donovani; assay: Antileishmanial activity against Leishmania donovani promastigotes assessed as inhibition of parasite growth; assay type: functional, organism-based
[19] = tested on: Leishmania amazonensis; assay: Antileishmanial activity against Leishmania amazonensis promastigotes assessed as inhibition of parasite growth; assay type: functional; design: scale not given: the % may be the effect or the level left
[20] = tested on: Leishmania mexicana; assay: Antileishmanial activity against Leishmania mexicana promastigotes; assay type: functional, organism-based
[21] = tested on: Leishmania donovani; assay: Antileishmanial activity against Leishmania donovani promastigotes assessed as parasite growth inhibition incubated for 72 hrs by alamar blue staining based assay; assay type: functional, organism-based
[22] = tested on: Leishmania donovani; assay: Antileishmanial activity against Leishmania donovani MHOM/SD/62/1S-CL2D promastigotes assessed as reduction in parasite growth incubated for 24 hrs by resazurin dye based analysis; assay type: functional, organism-based
[23] = tested on: Leishmania major; assay: Antileishmanial activity against Leishmania major IR-173 promastigotes assessed as inhibition of parasite growth incubated for 48 hrs by resazurin dye based assay; assay type: functional, organism-based; conditions: IR-173, 48 h
[24] = tested on: Leishmania donovani; assay: Antileishmanial activity against Leishmania donovani 9515 promastigotes assessed as inhibition of parasite growth incubated for 48 hrs by resazurin dye based assay; assay type: functional, organism-based; conditions: Leishmania donovani, 9515, 48 h
[25] = tested on: Leishmania donovani; assay: Antileishmanial activity against Leishmania donovani MHOM/SD/62/1S assessed as inhibition of parasite growth by resazurin/alamar blue fluorometric assay; assay type: functional, organism-based
[26] = tested on: Leishmania infantum; assay: Antileishmanial activity against Leishmania infantum MON-1 promastigotes assessed as reduction in parasite viability measured after 48 hrs by MTT assay; assay type: functional, organism-based; conditions: MON-1, 48 h

For `CCOC(=O)C1=C(C)NC(C)=C(C(=O)OCC)C1c1cccc(Cl)c1`, the EC50 [1] was 2.2 µM and the EC50 [2] was 10.5 µM.

For `c1ccc(-c2nn(-c3ccccc3)cc2C2=NCCS2)cc1`, the IC50 [3] was 1.02 µg/mL (≈ 3.34 µM).

`NC(=O)[C@@H]1CSC(c2cn(-c3ccccc3)nc2-c2ccccc2)N1` (some centres undefined) showed an IC50 [3] of 1.02 µg/mL (≈ 2.91 µM).

With `COC(=O)C1=C(C)NC(C)=C(C(=O)OC)C1c1cccc(Cl)c1` the EC50 [1] was 5.4 µM.

Molecule `O=C(CC[Se]c1ccnc2cc(Cl)ccc12)Nc1ccc([N+](=O)[O-])cc1` has an IC50 [4] of 5.67 µM.

For `CCCc1cc(OC)c2oc(=O)c(C(=O)c3ccc([N+](=O)[O-])cc3)cc2c1`, the IC50 [5] was 6.8 µM and the IC50 [6] was 12 µM.

For `O=C(C[Se]CC(=O)Nc1ccc([N+](=O)[O-])cc1)Nc1ccc([N+](=O)[O-])cc1`, the IC50 [4] was 10.8 µM.

For `C#CCN1C(=O)CN(/N=C/c2ccc([N+](=O)[O-])o2)C1=O`, the IC50 [7] was 3.03 µM, the IC50 at 6 days [8] was 88.5 µM and the IC50 [9] was 0.39 µM.

Work on `Cc1nc2c3ccccc3c3ccccc3n2c1C(=O)NCc1cn(-c2cccc([N+](=O)[O-])c2)nn1` yielded an EC50 [10] of less than 30 µM.

For `Cc1cc(C)cc(-n2cc(CNC(=O)c3c(C)nc4c5ccccc5c5ccccc5n34)nn2)c1`, the EC50 [10] was less than 30 µM.

In the case of `CC(C)(C)c1ccc(COc2ccc(C(=O)N/N=C\c3ccc([N+](=O)[O-])o3)cc2)cc1`, the IC50 [11] is reported as 0.19 µM.

`Cc1nc2ccc(Cl)cn2c1C(=O)N1CCN(Cc2cn(-c3ccc(Cl)cc3)nn2)CC1` showed an IC50 [12] of 15.1 µM.

`CC1(C)CC(=O)c2cc(CNC(=O)C/C=C/c3ccccc3)ccc2S1` gave a CC50 [13] of 31.6 µM and an IC50 [14] of 10.5 µM.

`CCc1ccc(-n2cc(CN3CCN(C(=O)c4c(C)nc5ccc(Cl)cn45)CC3)nn2)cc1` gave an IC50 [12] of 15.1 µM.

Work on `O=C(c1ccccc1)N1N=C(c2ccccc2)CC1c1cn(-c2ccc(Cl)cc2)nc1-c1ccccc1` (centres undefined) yielded an IC50 [15] of 0.08 µM and an IC50 [16] of 0.87 µM.

For `CC(C)=CC1=C(OC(=O)CCc2cn(-c3cccc(Cl)c3)nn2)C(=O)c2ccccc2C1=O`, the IC50 [17] was 16.7 µM.

Work on `Cc1cc(O)c(C(=O)Nc2ccccc2)c(=O)n1Cc1ccc(Cl)cc1` yielded an IC50 [18] of 55 µM.

`CCCn1c(C)cc(O)c(C(=O)Nc2ccc(Br)cc2)c1=O` showed an IC50 [18] of 55 µM.

Molecule `O=C1NC(=S)N2CCCC12` (centres undefined) has an Activity [19] of 20%.

For `COc1cc(/C=C/C(=O)c2ccccc2Cl)ccc1OCC=C(C)C`, the IC50 [20] was 8.04 µM.

`Cc1cc(O)c(C(=O)Nc2ccc(Br)cc2)c(=O)n1C1CC1` showed an IC50 [18] of 55 µM.

`COc1cc(C(=O)/C=C/c2ccc([N+](=O)[O-])cc2)ccc1OCC=C(C)C` gave an IC50 [20] of 8.22 µM.

For `CN(C)CCCNC(=O)c1ccc2cc(Cl)ccc2n1`, the IC50 [21] was 5.85 µM.

In the case of `CCCCCCCCCCCCCCCC(=O)CC(=O)N1CCC[C@@H]1COP(=O)([O-])OCC[N+](C)(C)C`, the IC50 [22] is reported as 28.3 µM.

In the case of `Cc1nc2ccc(Cl)cn2c1C(=O)N1CCN(Cc2cn(-c3ccc(Br)cc3)nn2)CC1`, the IC50 [12] is reported as 15.1 µM.

`Cc1cc(O)c(C(=O)Nc2ccccc2)c(=O)n1Cc1cccc(Cl)c1Cl` showed an IC50 [18] of 55 µM.

Work on `O=C(N/N=C/c1ccc([N+](=O)[O-])o1)c1ccc(OCc2ccc(F)cc2)cc1` yielded an IC50 [23] of 0.28 µM, an IC50 [24] of 0.86 µM and an IC50 [25] of 0.23 µM.

Molecule `CCOC(=O)c1cc2c([nH]c3ccccc32)c(-c2ccccn2)n1` has an EC50 [26] greater than 29.8 µM.

For `COc1ccc2nc(C(=O)NCCCN(C)C)ccc2c1`, the IC50 [21] was 8 µM.

For `CC1(C)CC(=O)c2cc(CNC(=O)CCCCCCCCBr)ccc2S1`, the CC50 [13] was 58 µM and the IC50 [14] was 7.2 µM.
